Test results: US6894043B1, “Benzothiadiazine derivatives, preparation method and pharmaceutical compositions containing same” (Les Laboratoires Servier, priority 1999, dated 2005)

System: AMPA receptors
Experiment: Excitatory fluxes induced by AMPA in Xenopus oocytes (2-electrode voltage-clamp)
Format: cell-based
Details: AMPA 30 μM; Xenopus oocytes injected with rat cortex poly(A+) mRNA; 20-24° C.
Method: mRNAs are prepared from cerebral cortex of male Wistar rat by the guanidium thiocyanate/phenol/chloroform method. The poly(A^+)mRNAs are isolated by chromatography on oligo-dT cellulose and injected with 50 ng per oocyte. The oocytes are left for 2 to 3 days' incubation at 10° C. to enable expression of the receptors and are then stored at 8-10° C.
Electrophysiological recording is carried out in a plexiglass chamber at 20-24° C. in an OR2 medium (J. Exp. Zool., 1973, 184, 321-334) by the 2-electrode “voltage-clamp” method, with a 3rd electrode being placed in the bath to serve as reference.
All the compounds are administered via the incubation medium and the electric current is measured at the end of the period of administration. AMPA is used in a concentration of 30 μM. For each compound studied, there is determined the concentration that doubles (EC2X) or quintuples (EC5X) the intensity of the flux induced by AMPA alone (50 to 100 nA).

CCN1CNS(=O)(=O)c2cc(I)ccc21 [Example 4, 4-Ethyl-7-iodo-2,3-dihydro-4H-1,2,4-benzothiadiazine 1,1-dioxide]
EC2X (concentration that doubles the intensity of the flux induced by AMPA alone): 95 ± 31 µM | EC5X (concentration that quintuples the intensity of the flux induced by AMPA alone): >300 µM

CCN1CNS(=O)(=O)c2cc(Br)ccc21 [Example 3, 7-Bromo-4-ethyl-2,3-dihydro-4H-1,2,4-benzothiadiazine 1,1-dioxide]
EC2X (concentration that doubles the intensity of the flux induced by AMPA alone): 29 ± 6 µM | EC5X (concentration that quintuples the intensity of the flux induced by AMPA alone): 78 ± 16 µM
